For data set [1], the target named is T1, human PTP-1B (1-321) (Homo sapiens, UniProt P18031).
T1 construct: ID No.2; made in house; host or cells: Escherichia coli BL21 DE3 (plasmid pET-hPTP1B (1-321), vector pET-11c)
T1 sequence (P18031 1-321): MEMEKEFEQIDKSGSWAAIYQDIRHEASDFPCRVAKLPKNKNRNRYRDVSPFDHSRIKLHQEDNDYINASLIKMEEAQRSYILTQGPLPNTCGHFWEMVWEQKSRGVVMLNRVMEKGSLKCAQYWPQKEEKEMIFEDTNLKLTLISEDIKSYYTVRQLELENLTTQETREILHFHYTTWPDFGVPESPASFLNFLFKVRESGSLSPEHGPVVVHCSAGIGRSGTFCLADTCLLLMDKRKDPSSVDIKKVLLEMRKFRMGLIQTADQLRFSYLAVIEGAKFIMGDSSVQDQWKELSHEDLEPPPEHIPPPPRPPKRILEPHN
As to the kind of experiment: Determination of PTP-1B enzyme inhibitory activity (phosphopeptide substrate, malachite green). In kind it is biochemical. The conditions noted are these: each compound 100 μM; peptide substrate, 37° C., 10 min. The text has this:
As the substrates for PTP-1B enzyme reaction, synthetic peptides consisting of the following amino acid sequence: • Thr-Arg-Asp-Ile-Tyr (PO4)-Glu-Thr-Asp-Tyr (PO4)-Tyr (PO4)-Arg-Lys (SEQ; NO. 5), wherein 3 tyrosines had been all phosphorylated, were used (synthesis committed to Shimadzu Scientific Research Inc. (Chiyoda-ku, Tokyo)). [According to the amino acid numbers based on the report of Ullrich et al. (Nature, vol. 313, pages 756-761, 1985), this amino acid sequence corresponds to Nos. 1142-1153 of insulin receptor, and corresponds to Nos. 1169-1180 in the amino acid sequence of the insulin receptor precursor registered in Genbank No. X02160.]
This peptide substrate and a PTP-1B enzyme were reacted and the enzyme activity was determined by quantitation of inorganic phosphoric acid released from the substrate by the reaction. The decreased enzyme activity in the presence of a test compound during the enzyme reaction was taken as the enzyme inhibitory activity. Specifically, the following method was performed.
A peptide substrate (synthesis committed to Shimadzu Scientific Research Inc.) was dissolved in a buffer (20 mM imidazole (pH 7.0), 50 mM NaCl, 5 mM DTT and 2.5 mM EDTA) to 300 μM, and cryopreserved.
The PTP-1B solution obtained earlier was diluted with a buffer (20 mM imidazole (pH 7.0), 50 mM NaCl, 5 mM DTT, 2.5 mM EDTA, and 0.05% Nonidet P-40) to 200 ng/ml.
A 96 well microtiter plate [Costar 3695 (half area) Corning] was used and a buffer [39 μl, 20 mM imidazole (pH 7.0), 50 mM NaCl, 5 mM DTT, 2.5 mM EDTA], a PTP-1B enzyme solution (5 μl), and a solution (5 mM, 1 μl) of a test compound in dimethylsulfoxide (DMSO) were added to each well. As a control, solvent (DMSO, 1 μl) was added instead of the DMSO solution of test compound. After preincubation at 37° C. for about 10 min, a peptide substrate solution (300 μM, […]) was added and the mixture was incubated at 37° C. for 10 min.
For quantitation of released inorganic phosphoric acid, malachite green solution (90 μl, manufactured by BIOMOL Research Laboratories, Inc.) was added to each well, and the mixture was left standing at room temperature for about 10 min and the absorbance at 650 nm was measured with a microplate reader. Linearity was mostly observed between the absorbance and the phosphoric acid concentration generally within the absorbance range of from 0.05 to 0.6 (phosphoric acid from about […]) under these conditions.
The PTP-1B inhibitory activity of the test compound was obtained by the following calculation formula. Inhibitory activity (%)=[…]

In data set [2] the target is T2, GAL4-PPARγ chimeric receptor (human PPARγ ligand binding site) (Homo sapiens, UniProt P37231).
T2 construct: a GAL4-PPARγ chimeric receptor containing amino acid Nos. 1-147 of yeast transcription factor GAL4 on the amino terminal and Nos. 175-475; expressed in transfected cells; host or cells: HEK293 (plasmid pM-PPARγ co-transfected with reporter pFR-Luc)
As to the kind of experiment: Determination of PPARγ activation ability (GAL4-PPARγ luciferase reporter assay in HEK293 cells). The data set is classed as cell-based. Conditions: each compound 1 μM; amount of luminescence relative to control; value greater than 1 = activation ability. On the technique in general: Reporter assays use an easily measured gene product as a stand-in for the process of interest.
Method: As a method for determining the ability of a compound to activate PPARγ (hereinafter PPARγ activation ability), a test by a reporter assay was performed with reference to the report of Kliewer et al. (Journal of Biological Chemistry, 1995, vol. 270(22), p. 12953-12956).
With reference to the report of Kliewer, a gene expressing a GAL4-PPARγ receptor, wherein human PPARγ ligand binding site (corresponding to about 300 amino acids on carboxy terminal) is bound with a DNA binding site (corresponding to 147 amino acids on amino terminal region) of yeast transcription factor GAL4, was prepared.
The plasmid pM-PPARγ obtained earlier, and plasmid pFR-Luc purchased from [sequence] CLONING SYSTEMS were each dissolved in desalted water to a concentration of 1 mg/1 ml.
A human fetal kidney-derived cell line HEK293 (American Type Culture Collection CRL-1573) was sown in a 75 cm^2 culture flask, and cultured in Dulbecco's Modified Eagle medium containing 10% fetal bovine serum (hereinafter a medium) under the conditions of 37° C., 5% CO2 until it reached nearly 80% confluent.
Using 7.5 μg of plasmid pM-PPARγ and 7.5 μg of plasmid pFR-Luc, both per flask, as well as a FuGENE6 transfection reagent (manufactured by Rosch Diagnostics) the plasmids were transfected to HEK293 cells and cultured overnight.
The next day, the cells were treated with trypsin and recovered. A 96 well plate coated with poly-L-lysine (IWAKI poly-L-lysine coated 96 well plate, manufactured by ASAHI TECHNOGLASS) was prepared, the cells were sown at about 50,000 cells/well, 90 μl, using the medium and cultured overnight.
The test compound was dissolved in DMSO at a concentration of 10 mM. This was diluted 1,000-fold with the medium, and 10 μl therefrom was added to the well in which cells were growing. The treatment concentration in the cell was 1 μM. After the addition, the cells were cultured overnight.
The next day, the medium was removed, and the cells were washed with phosphate buffered saline containing 1 mM magnesium and 1 mM calcium chloride. PicaGene LT FR manufactured by Wako Pure Chemical Industries, Ltd. was diluted 2-fold with the same saline and the solution was added to each well by 200 μl. After standing the mixture for about 1 hr, it was stirred and 180 μl thereof was taken from each well and placed in a white 96 well plate (OptiPlate 96, manufactured by Packard), applied to TopCount (manufactured by Packard) and the amount of luminescence of each well was measured for 6 seconds.
The PPARγ activation ability of the test compound was determined by the following calculation formula: PPARγ activation ability=(amount of luminescence [in the presence of each compound (1 μM)]}/[amount of luminescence (control)]

Data set [3] relates to male Zucker Fatty rats. As to the kind of experiment: Expression suppressive action on edema and the like: 2-week oral administration, insulin and blood cell parameters. In kind it is in vivo, rat. The source says:
For the test, male Zucker Fatty rats (6-week-old, Japan SLC) were used. During the acclimation period for 1 week and test period, feed (FR-2 (Funabashi Farm)) and water were freely given.
Blood was taken from the tail vain using a heparin-coated hematocrit tube and an EDTA-added hematocrit tube, and a part thereof was preserved as a whole blood and the rest was centrifuged and plasma was collected and subjected to the measurement of biochemical parameter (insulin). For insulin measurement, a rat Insulin RIA kit (US Linco) was used, and all the samples were collectively measured after the completion of administration. The whole blood sample was subjected to the measurement of blood cell parameters (erythrocyte concentration, hemoglobin concentration) using an automatic blood cell measurement apparatus (KX-21N, Sysmex Corporation).
At the beginning of the test, blood was taken from all the rats, and randomly grouped to make the parameters (body weight, erythrocyte, hemoglobin and the like) almost the same. […] The start of the administration was day 0, and the animals were fasted for about 16 hr from the evening of day 13. Blood was taken and measured for each parameter.

T2 sequence (P37231 with tags, fused parts or gaps): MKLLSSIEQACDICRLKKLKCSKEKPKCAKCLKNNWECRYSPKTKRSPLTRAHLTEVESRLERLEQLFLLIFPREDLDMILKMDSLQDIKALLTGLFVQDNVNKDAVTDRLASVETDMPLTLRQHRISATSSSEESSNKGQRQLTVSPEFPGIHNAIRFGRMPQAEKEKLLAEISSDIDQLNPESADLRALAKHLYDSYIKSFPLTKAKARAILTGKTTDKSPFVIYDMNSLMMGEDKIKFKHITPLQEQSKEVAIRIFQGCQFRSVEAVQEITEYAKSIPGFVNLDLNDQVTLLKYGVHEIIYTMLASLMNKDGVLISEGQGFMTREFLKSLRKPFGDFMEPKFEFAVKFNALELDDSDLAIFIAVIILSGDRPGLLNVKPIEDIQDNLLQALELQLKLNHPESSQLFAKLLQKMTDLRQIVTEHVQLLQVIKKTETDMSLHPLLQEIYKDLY

In the case of `CC(C)(C)N.CC=CC=CC(=O)N1Cc2cc(OCCc3nc(/C=C/C4CCCC4)oc3C)ccc2C[C@H]1C(=O)O` (stereo in doubt) [Reference Example 22, 7-{2-[2-(trans-2-cyclopentylvinyl)-5-methyloxazol-4-yl]ethoxy}-2-(2,4-hexadienoyl)-1,2,3,4-tetrahydroisoquinoline-(3S)-carboxylic acid tert-butylamine Salt], the “inhibitory activity (%)” value in data set [1] is given as 95%. The molecule further registered a PPARγ activation ability in data set [2] of 5.1.
In the case of `CC(C)(C)N.CCCCC=CC(=O)N1Cc2cc(OCCc3nc(/C=C/CC(C)C)oc3C)ccc2C[C@H]1C(=O)O` (stereo in doubt) [Reference Example 24, 2-(2-heptenoyl)-7-{2-[5-methyl-2-(4-methyl-trans-1-penten-1-yl)oxazol-4-yl]ethoxy}-1,2,3,4-tetrahydroisoquinoline-(3S)-carboxylic acid tert-butylamine Salt], the “inhibitory activity (%)” value in data set [1] stood at 92%. In data set [2], this molecule came in with a PPARγ activation ability of 9.4.
As for `CC(C)(C)N.CC=CC=CC(=O)N1Cc2cc(OCCc3nc(/C=C/CCCC)oc3C)ccc2C[C@H]1C(=O)O` (stereo in doubt) [Reference Example 27, 2-(2,4-hexadienoyl)-7-{2-[2-(trans-1-hexen-1-yl)-5-methyloxazol-4-yl]ethoxy}-1,2,3,4-tetrahydroisoquinoline-(3S)-carboxylic acid tert-butylamine Salt], in data set [1], the “inhibitory activity (%)” value is 88%. Also, in data set [2], the PPARγ activation ability is given as 5.9.
For the molecule `CC(C)(C)N.CC=CC=CC(=O)N1Cc2cc(OCCc3nc(/C=C/CCC(C)C)oc3C)ccc2C[C@H]1C(=O)O` (stereo in doubt) [Reference Example 30, 2-(2,4-hexadienoyl)-7-{2-[5-methyl-2-(5-methyl-trans-1-hexen-1-yl)oxazol-4-yl]ethoxy}-1,2,3,4-tetrahydroisoquinoline-(3S)-carboxylic acid tert-butylamine Salt], the “inhibitory activity (%)” value in data set [1] is 96%. Also, in data set [3] (30 mg/kg, po, once-daily, 2 consecutive weeks, FIG. 1), the hemoglobin concentration entry is “somewhat lower than those of the control group, but maintained at a remarkably high level as compared to the rosiglitazone administration group”. In data set [3] (30 mg/kg, po, once-daily, 2 consecutive weeks, FIG. 2), the “insulin lowering action (blood insulin concentration)” value is reported as “equivalent to that of the rosiglitazone”. Moreover, in data set [3] (30 mg/kg, po, once-daily, 2 consecutive weeks, FIG. 3), the erythrocyte concentration entry is listed as “somewhat lower than those of the control group, but maintained at a remarkably high level as compared to the rosiglitazone administration group”. In data set [3] (compared with rosiglitazone administration group), the “blood dilution (decrease in the concentrations of hemoglobin and erythrocyte)” value is given as “markedly suppressed”. The molecule also yielded a PPARγ activation ability in data set [2] of 6.2.
Regarding `CC(C)(C)N.CC=CC=CC(=O)N1Cc2cc(OCCc3nc(/C(C)=C/CCC)oc3C)ccc2C[C@H]1C(=O)O` (stereo in doubt) [Reference Example 33, 2-(2,4-hexadienoyl)-7-{2-[5-methyl-2-(1-methyl-trans-1-penten-1-yl)oxazol-4-yl]ethoxy}-1,2,3,4-tetrahydroisoquinoline-(3S)-carboxylic acid tert-butylamine Salt], the “inhibitory activity (%)” value in data set [1] turned out to be 92%. In data set [2], this molecule gave a PPARγ activation ability of 6.5.
For `CC(C)(C)N.CC=CC=CC(=O)N1Cc2cc(OCCc3nc(/C=C/C4CCCCC4)oc3C)ccc2C[C@H]1C(=O)O` (stereo in doubt) [Reference Example 40, 7-{2-[2-(trans-2-cyclohexylvinyl)-5-methyloxazol-4-yl]ethoxy}-2-(2,4-hexadienoyl)-1,2,3,4-tetrahydroisoquinoline-(3S)-carboxylic acid tert-butylamine Salt] the same measures were 90% and 5.4.
For the molecule `CC(C)(C)N.CC=CC=CC(=O)N1Cc2cc(OCCc3nc(/C=C/CCCF)oc3C)ccc2C[C@H]1C(=O)O` (stereo in doubt) [Reference Example 66, 7-{2-[2-(5-fluoro-trans-1-penten-1-yl)-5-methyloxazol-4-yl]ethoxy}-2-(2,4-hexadienoyl)-1,2,3,4-tetrahydroisoquinoline-(3S)-carboxylic Acid tert-butylamine Salt], the “inhibitory activity (%)” value in data set [1] is 80%. Besides, in data set [2], the PPARγ activation ability worked out at 3.0.
For `CC(C)(C)N.CC=CC=CC(=O)N1Cc2cc(OCCc3coc(/C(C)=C/CCC)n3)ccc2C[C@H]1C(=O)O` (stereo in doubt) [Reference Example 83, 2-(2,4-hexadienoyl)-7-{2-[2-(1-methyl-trans-1-penten-1-yl)oxazol-4-yl]ethoxy}-1,2,3,4-tetrahydroisoquinoline-(3S)-carboxylic Acid-tert-butylamine Salt], in data set [1], the “inhibitory activity (%)” value was found to be 82%. For the same molecule, the PPARγ activation ability in data set [2] turned out to be 3.1.
As to `CN(CCOc1ccc(CC2SC(=O)NC2=O)cc1)c1ccccn1` (stereo not drawn) [Rosiglitazone, reference compound], the inhibition at 100 µM in data set [1] was < 10%.

As usually defined, the inhibition is the share of the control response that was lost under treatment.

These data come from patent US7718377B2, “Insulin resistance curative and method of screening the same” (Kyoto Pharmaceutical Industries, Ltd., priority 2003, dated 2010).
